Measured values as given in patent EP0350742A1, “6-Merkaptopurines derivatives, their preparation and their use against retrovirus infections” (HOECHST AKTIENGESELLSCHAFT, priority 1988, dated 1990).
One block for each molecule: values may come before it.

Experiments:
Friend-Leukämie-Virus [1] = assay: Friend leukaemia virus (FLV) infection in the mouse, i.p. application (Tabelle I); assay type: in vivo, Maus; settings: for rel. Milzgewicht: NMRI mice, treatment over 10 days starting 48 h after infection, spleen weighed day 14; for n* Anzahl überlebende Mäuse: groups of 10 mice
From the text: (§1) Blockierung der Reverse Transkriptase-(RT)-Aktivität untersucht wird, erscheint die Wahl eines solchen Ersatzmodelles gerechtfertigt. Im vorliegenden Fall wurde die Infektion der Maus mit dem Friend-Leukämie-Virus gewählt. Dazu wurden normale Labormäuse (NMRI = Naval Medical Research Institute) durch intravenöse Injektion mit Friend-Virus enthaltendem Mäuseserum infiziert. Bei den unbehandelten Kontrolltieren entwickelte sich als Symptom der Infektion innerhalb von 2 Wochen eine deutliche Vergrößerung von Milz und Leber. Die Behandlung erfolgte über 10 Tage, beginnend 48 Stunden nach der Infektion. Am 14. Versuchstag wurden die Tiere durch Luxation der Halswirbel getötet und geöffnet. Die Milz wurde entnommen und gewogen. Als Meßparameter der therapeutischen Wirksamkeit wurde das Milzgewicht der behandelten Tiere mit dem der unbehandelten Infektionskontrolle in Relation gesetzt.
Während bei uninfizierten ausgewachsenen Labormäusen (20 - 24 g Körpergewicht) die Milz etwa 1 % des Körpergewichtes oder weniger wog, erreichte bei infizierten Tieren die Milz am Ende des Versuchs etwa 10 % des Körpergewichts.
Tabelle I zeigt die Ergebnisse der Wirksamkeitstests bei der Friend-Leukämie-Virusinfektion in der Maus bei intraperitonealer Verabreichung der erfindungsgemäßen Verbindungen. Als Kontrolle diente eine Gruppe von Mäusen, die unbehandelt blieben.
Zum Vergleich wurde eine weitere Gruppe von Mäusen mit Suramin behandelt. Tabelle I verdeutlicht, daß die erfindungsgemäßen Verbindungen besser wirken als Suramin, bei vergleichbarer oder geringerer Beeinträchtigung des Hämaglobingehaltes des Blutes. Bei Verabreichung der erfindungsgemäßen Verbindungen überlebten alle Mäuse die Behandlung, wohingegen bei der Verabreichung von Suramin 3 von 10 Mäusen starben. Weiterhin war der Behandlungserfolg, erkennbar an der Verringerung der Milzschwellung, bei Verabreichung aller getesteten Verbindungen größer als bei der Verabreichung von Suramin.

Friend-Leukämie-Virus [2] = assay: Friend leukaemia virus (FLV) infection in the mouse, oral application via drinking water (Tabelle II); assay type: in vivo, Maus; settings: for n* Anzahl überlebende Mäuse / Hg: oral; for Hg: haemoglobin content of blood
From the text: as §1, with “Bei den unbehandelten Kontrolltieren entwickelte sich als Symptom der Infektion innerhalb von 2 Wochen eine deutliche Vergrößerung von Milz und Leber.” left out

[3] = Qualitative solubility noted in the preparation examples; assay type: physicochemical
[4] = 0.05 mg/ml in drinking water, oral (10 x 0.17-0.18 mg/Maus)
[5] = 0.10 mg/ml in drinking water, oral (10 x 0.33-0.36 mg/Maus)
[6] = 0.50 mg/ml in drinking water, oral (10 x 1.67-1.77 mg/Maus)

SMILES: c1cc(CSc2ncnc3[nH]cnc23)ccn1 [Präparat 1, 6-(4-pyridylmethyl)-mercaptopurin]
- rel. Milzgewicht (Friend-Leukämie-Virus [1]; 10 x 0.1 mg/Maus i.p.): 5.23 ± 2.69 % Körpergewicht
- n* Anzahl überlebende Mäuse (Friend-Leukämie-Virus [1]; 10 x 0.1 mg/Maus i.p.): 10
- rel. Milzgewicht (Friend-Leukämie-Virus [1]; 10 x 1.0 mg/Maus i.p.): 2.08 ± 0.44 % Körpergewicht
- n* Anzahl überlebende Mäuse (Friend-Leukämie-Virus [1]; 10 x 1.0 mg/Maus i.p.): 10
- Hg (Friend-Leukämie-Virus [1]; 10 x 1.0 mg/Maus i.p., haemoglobin content of blood): 13.2 g/ %
- n* Anzahl überlebende Mäuse (Friend-Leukämie-Virus [2]; 0.05 mg/ml in drinking water): 10
- rel. Milzgewicht (Friend-Leukämie-Virus [2]; [4]): 7.01 ± 2.99 % Körpergewicht
- n* Anzahl überlebende Mäuse (Friend-Leukämie-Virus [2]; 0.10 mg/ml in drinking water): 10
- rel. Milzgewicht (Friend-Leukämie-Virus [2]; [5]): 4.80 ± 2.74 % Körpergewicht
- n* Anzahl überlebende Mäuse (Friend-Leukämie-Virus [2]; 0.50 mg/ml in drinking water): 10
- rel. Milzgewicht (Friend-Leukämie-Virus [2]; [6]): 1.66 ± 1.25 % Körpergewicht
- Hg (Friend-Leukämie-Virus [2]; 0.50 mg/ml in drinking water): 11.3 g/%
- Löslichkeit in Wasser ([3]; free base): unlöslich
- Löslichkeit in allen säurehaltigen Flüssigkeiten ([3]; free base): gut löslich

SMILES: Cc1cn([C@H]2C[C@H](N=[N+]=[N-])[C@@H](CO)O2)c(=O)[nH]c1=O [AZT, Azidothymidin, reference compound]
- n* Anzahl überlebende Mäuse (Friend-Leukämie-Virus [2]; 0.05 mg/ml in drinking water): 10
- Hg (Friend-Leukämie-Virus [2]; 0.05 mg/ml in drinking water): 14.1 g/%
- n* Anzahl überlebende Mäuse (Friend-Leukämie-Virus [2]; 0.10 mg/ml in drinking water): 10
- Hg (Friend-Leukämie-Virus [2]; 0.10 mg/ml in drinking water): 12.7 g/%

- Löslichkeit in Alkohol, heißem Wasser und Polyethylenglykol [3]: leicht löslich
- Löslichkeit in kaltem Wasser [3]: Schwer löslich
SMILES: C=CCSc1ncnc2[nH]cnc12 [Präparat 3, 6-(2-propenyl)-mercaptopurin]
- rel. Milzgewicht (Friend-Leukämie-Virus [1]; 10 x 0.1 mg/Maus i.p.): 5.86 ± 1.84 % Körpergewicht
- rel. Milzgewicht (Friend-Leukämie-Virus [1]; 10 x 1.0 mg/Maus i.p.): 1.37 ± 0.38 % Körpergewicht
- rel. Milzgewicht (Friend-Leukämie-Virus [2]; [4]): 4.52 ± 2.28 % Körpergewicht
- rel. Milzgewicht (Friend-Leukämie-Virus [2]; [5]): 1.51 ± 1.26 % Körpergewicht

- Mäuse starben (Friend-Leukämie-Virus [1]; in vivo, ip): 3
SMILES: Cc1ccc(C(=O)Nc2ccc(S(=O)(=O)O)c3cc(S(=O)(=O)O)cc(S(=O)(=O)O)c23)cc1NC(=O)c1cccc(NC(=O)Nc2cccc(C(=O)Nc3cc(C(=O)Nc4ccc(S(=O)(=O)O)c5cc(S(=O)(=O)O)cc(S(=O)(=O)O)c45)ccc3C)c2)c1 [Suramin, reference compound]
- rel. Milzgewicht (Friend-Leukämie-Virus [1]; 10 x 1.0 mg/Maus i.p.): 4.54 ± 1.86 % Körpergewicht
- rel. Milzgewicht (Friend-Leukämie-Virus [2]; 10 x 1.00 mg/Maus i.p., comparison group within the Tabelle II experiment): 4.50 ± 2.22 % Körpergwicht

SMILES: c1cncc(CSc2ncnc3[nH]cnc23)c1 [Präparat 2, 6-(3-Pyridylmethyl)-mercaptopurin]
- rel. Milzgewicht (Friend-Leukämie-Virus [1]; 10 x 0.1 mg/Maus i.p.): 5.46 ± 3.32 % Körpergewicht
- rel. Milzgewicht (Friend-Leukämie-Virus [1]; 10 x 1.0 mg/Maus i.p.): 1.84 ± 0.82 % Körpergewicht
- rel. Milzgewicht (Friend-Leukämie-Virus [2]; [4]): 5.76 ± 2.72 % Körpergewicht
- rel. Milzgewicht (Friend-Leukämie-Virus [2]; [5]): 1.46 ± 1.00 % Körpergewicht
- rel. Milzgewicht (Friend-Leukämie-Virus [2]; [6]): 0.90 ±1.12 % Körpergewicht
